Experimental data published in paper PMC5234776, “Study of the Antimicrobial Activity of Tilapia Piscidin 3 (TP3) and TP4 and Their Effects on Immune Functions in Hybrid Tilapia (Oreochromis spp.)” (PLoS ONE, 2017).
≈ marks a conversion by molar mass, not a printed value. Where two headings read alike, the source gives them in different places. Blank lines part the entries; values can stand above or below the molecule they belong to. Peptide text beside a SMILES is read from it.

Key:
tilapia = experiment: Toxicity of peptide alone, tilapia survival; assay type: in vivo, tilapia (Oreochromis spp.); conditions: abdominal cavity, no infection, seven days (S2 Fig)
Protocol: The antimicrobial activities of TP3 and TP4 peptides were analyzed in tilapia infected with lethal amounts of bacteria. Different amounts of V. vulnificus were injected into the abdominal cavities of the fish, and survival rates were recorded as cumulative percentages (S1 Fig). To determine whether TP3 and TP4 had any toxic effects on the tilapia, we injected different doses of TP3 and TP4 (0.1, 1, 10, 20, 30, 40, or 50 μg/fish) into the abdominal cavity and recorded the cumulative survival percentage of the fish (S2 Fig). We also co-treated tilapia with different doses (0.1, 1, 10, 20 μg/fish) of TP3 or TP4 combined with 2x10^4 CFU of V. vulnificus to evaluate tilapia survival following treatment. […] After 14, 21, or 28 days following the first co-treatment with TP3, the tilapia that survived in the 20 μg/fish TP3 experimental group were injected with a second dose of 2x10^4 CFU of V. vulnificus, and the survival rates were measured for another seven days. […] In the co-treatment experiments, at 14, 21, or 28 days after the first co-treatment with TP4, the surviving tilapia in the 20 μg/fish TP4 experimental group received a second injection of 2x10^4 CFU of V. vulnificus, and the survival rates were measured for another seven days.
Supplementary file pone.0169678.s002.pdf: S2 Fig Determination of tilapia survival rates seven days after injection with different concentrations of TP3 or TP4. (a) The survival rates of tilapia injected with TP3 at a dose of 0.1 μg/fish, 1 μg/fish, or 10 μg/fish. (b) The percentage of tilapia surviving after injection with TP4 at 0.1 μg/fish, 1 μg/fish, or 10 μg/fish. (c) The percentage of tilapia surviving after injection with TP3 at 20 μg/fish, 30 μg/fish, 40 μg/fish, or 50 μg/fish. (d) The percentage of tilapia surviving after injection with TP4 at 20 μg/fish, 30 μg/fish, 40 μg/fish, or 50 μg/fish. The control group (control) was injected with PBS alone. (PDF) Click here for additional data file.

in vivo = experiment: in vivo; set-up: species or system tilapia (Oreochromis hybrids, Tilapia spp.); conditions: male, iv, 0.2 mg/kg
Protocol: The peptide half-life of TP3 and TP4 were investigated in male tilapia (Oreochromis hybrids, Tilapia spp., with a mean body length of 32.33±1.5 cm and a mean body weight of 1117±78.2 g) after intravenous administration of a single dose of 0.2 mg/kg of peptide. The TP3 and TP4 concentrations in serum samples were determined at 10, 30, 60, 120, 180, 240, 300, and 360 minutes for TP3 and at 10, 60, 120, 180, 240, 300, and 360 minutes after dosing for TP4. At each sample collection time point, we anesthetized three fish and collected their blood. The blood was centrifuged to obtain fish serum, which was assessed by liquid chromatography-mass spectrometry/mass spectrometry (LC-MS/MS) at Mission Biotech (Taipei, Taiwan).

V. vulnificus [1] = experiment: microbe, parasite or virus in culture; assay type: cell-based, Vibrio vulnificus
Protocol: (§1) To understand the effects of pH on TP3 or TP4, the reagents were dissolved in ddH2O, 1 M HCl or 1 M NaOH to obtain solutions with different pH values. For the temperature-dependent functional study, the TP3 or TP4 was added to a solution in a water bath (Basic life, model BL3002, Taiwan) and incubated for 60 minutes at different temperatures (40, 60, 80, or 100°C). To evaluate the effects of TP3 and TP4 on pepsin and trypsin function, each peptide was incubated for 10 or 30 minutes with different concentrations of pepsin or trypsin (0.1, 1, or 10 μg/ml), and we determined the MIC values after incubating these solutions with cells at 28°C for 720 minutes, according to a previously described MIC experimental protocol.

V. vulnificus [2] = experiment: Synergy of TP3 or TP4 with ampicillin or kanamycin; assay type: cell-based, Vibrio vulnificus; conditions: V. vulnificus 5×10^3 CFU/ml, 28°C, 720 minutes, 600-nm absorbance
Protocol: We used the co-treatment method to test combinations of TP3 or TP4 with ampicillin or kanamycin to identify synergistic effects. […] The plates were incubated at 28°C for 720 minutes, and after the incubation period, the concentrations of the bacterial solutions were detected using a spectrometer (600-nm absorbance).

V. vulnificus [3] = experiment: microbe, parasite or virus in culture; assay type: cell-based, Vibrio vulnificus; conditions: V. vulnificus
Protocol: (§2) We determined the MICs of TP3, TP4, kanamycin, and ampicillin against V. vulnificus using a broth microdilution method in accordance with NCCLS guidelines. To measure the killing efficiencies of TP3 and TP4 against V. vulnificus, we prepared TP3 or TP4 solutions at MIC concentrations of 0.5×, 1×, and 2× and these solutions with equal volumes of V. vulnificus (1×10^6 CFU/ml) to each well of a 96-well plate. The plates were incubated at 28°C for 0, 60, 120, 180, 360, 540, 720, or 1440 minutes, and after the incubation period, 50 μL of each bacterial solution were plated on a TCBS plate to obtain viable cell counts. Broth grown in the absence of peptides was used as a negative control. The results were determined using triplicate independent experiments.
First, we determined the minimum MICs and minimum bactericidal concentrations (MBCs) of TP3 or TP4 against V. vulnificus.

V. vulnificus [4] = experiment: MIC, broth microdilution (NCCLS); assay type: cell-based, Vibrio vulnificus; conditions: 28°C
Protocol: as §2

V. vulnificus [5] = experiment: microbe, parasite or virus in culture; assay type: cell-based, Vibrio vulnificus; remark: listed apart in the source
Protocol: as §1, with “[…],” for “and we determined the MIC values after incubating these solutions with cells at 28°C for 720 minutes,”

V. vulnificus [6] = experiment: Membrane perturbation, NPN uptake; assay type: cell-based, Vibrio vulnificus; conditions: 1×10^6 CFU/ml, 30 minutes, 40 μmol/L NPN; kanamycin: slight increase only
Protocol: We used previously reported methods for the membrane perturbation assay. Briefly, a single colony of V. vulnificus was cultured in TSB medium for 480 minutes at 28°C, and the adjusted culture (1×10^6 CFU/ml) was aliquoted into different tubes with or without TP4 or TP3. After incubating the cells for 30 minutes, we added 40 μmol/L 1-N-phenylnaphthylamine (NPN) and continued to incubate the cells. Tubes containing PBS with NPN and bacterial cells with NPN served as controls. The NPN fluorescence intensity was detected using a fluorescence ELISA reader. All experiments were performed in triplicate, and the results are expressed as means with standard errors (SE).

[7] = agent incubated 60 minutes at 60°C
[8] = agent incubated 60 minutes at 80°C
[9] = agent incubated 60 minutes at 100°C
[10] = agent dissolved in pH = 4 solution
[11] = agent dissolved in pH = 6 solution
[12] = agent dissolved in pH = 8 solution
[13] = agent dissolved in pH = 10 solution
[14] = agent dissolved in pH = 12 solution
[15] = agent incubated 60 minutes at 40°C

SMILES: CC[C@H](C)[C@H](NC(=O)[C@H](C)NC(=O)[C@H](CCCCN)NC(=O)CNC(=O)[C@H](C)NC(=O)[C@H](CO)NC(=O)[C@H](Cc1ccccc1)NC(=O)[C@H](CC(C)C)NC(=O)CNC(=O)CNC(=O)[C@@H](NC(=O)[C@@H](NC(=O)[C@H](Cc1cnc[nH]1)NC(=O)[C@H](Cc1cnc[nH]1)NC(=O)[C@@H](NC(=O)[C@@H](N)Cc1ccccc1)[C@@H](C)CC)[C@@H](C)CC)[C@@H](C)CC)C(=O)N[C@@H](Cc1cnc[nH]1)C(=O)N[C@@H](CCCNC(=N)N)C(=O)N[C@@H](CC(C)C)C(=O)N[C@H](C(=O)N[C@@H](CCCNC(=N)N)C(=O)N[C@@H](CCCNC(=N)N)C(=O)N[C@@H](CCCNC(=N)N)C(=O)N[C@@H](CCCNC(=N)N)C(=O)N[C@@H](CCCNC(=N)N)C(=O)O)[C@@H](C)CC [TP4, tilapia piscidin 4] (H-FIHHIIGGLFSAGKAIHRLIRRRRR-OH)
- percent survival after injection of peptide only (tilapia; 20 μg/fish): 70.0%
- percent survival after injection of peptide only (tilapia; 30 μg/fish): 56.7%
- percent survival after injection of peptide only (tilapia; 40 μg/fish): 63.3%
- percent survival after injection of peptide only (tilapia; 50 μg/fish): 30.0%
- half-life (in vivo): 1 h

- MIC (V. vulnificus [1]; Vibrio vulnificus, agent dissolved in pH = 4 solution, read-out: MIC): 3.9 µg/mL (≈ 11.2 µM)
- MIC (V. vulnificus [1]; Vibrio vulnificus, agent dissolved in pH = 6 solution, read-out: MIC): 3.9 µg/mL (≈ 11.2 µM)
- MIC (V. vulnificus [1]; Vibrio vulnificus, agent dissolved in pH = 8 solution, read-out: MIC): 3.9 µg/mL (≈ 11.2 µM)
- MIC (V. vulnificus [1]; Vibrio vulnificus, agent dissolved in pH = 10 solution, read-out: MIC): 3.9 µg/mL (≈ 11.2 µM)
- MIC (V. vulnificus [1]; Vibrio vulnificus, agent dissolved in pH = 12 solution, read-out: MIC): 15.6 µg/mL (≈ 44.6 µM)
- MIC (V. vulnificus [1]; Vibrio vulnificus, pH 7, Control of the pH series (pH 7), read-out: MIC): 3.9 µg/mL (≈ 11.2 µM)
- change of the MIC of the antibiotic in combination with TP3 or TP4 (V. vulnificus [2]): halved
- MIC (V. vulnificus [4]): 3.9 µg/mL (≈ 11.2 µM)
- MIC (V. vulnificus [4]; Vibrio vulnificus, read-out: MIC): 3.91 µg/mL (≈ 11.2 µM)
- MIC (V. vulnificus [5]; Vibrio vulnificus, 1 h, agent incubated 60 minutes at 40°C, read-out: MIC): 3.9 µg/mL (≈ 11.2 µM)
- MIC (V. vulnificus [5]; Vibrio vulnificus, RT, read-out: MIC): 3.9 µg/mL (≈ 11.2 µM)
- MIC (V. vulnificus [5]; [7]): 3.9 µg/mL (≈ 11.2 µM)
- MIC (V. vulnificus [5]; [8]): 3.9 µg/mL (≈ 11.2 µM)
- MIC (V. vulnificus [5]; [9]): 3.9 µg/mL (≈ 11.2 µM)
- thermostability by MIC and MBC values (V. vulnificus [5]; from 40°C to 100°C, in words): very stable
SMILES: CC1(C)S[C@@H]2[C@H](NC(=O)[C@H](N)c3ccccc3)C(=O)N2[C@H]1C(=O)O [ampicillin, reference compound]
- MBC (V. vulnificus [1]; Vibrio vulnificus, agent dissolved in pH = 4 solution, read-out: MBC): 3.9 µg/mL (≈ 11.2 µM)
- MBC (V. vulnificus [1]; Vibrio vulnificus, agent dissolved in pH = 6 solution, read-out: MBC): 3.9 µg/mL (≈ 11.2 µM)
- MBC (V. vulnificus [1]; Vibrio vulnificus, agent dissolved in pH = 8 solution, read-out: MBC): 3.9 µg/mL (≈ 11.2 µM)
- MBC (V. vulnificus [1]; Vibrio vulnificus, agent dissolved in pH = 10 solution, read-out: MBC): 3.9 µg/mL (≈ 11.2 µM)
- MBC (V. vulnificus [1]; Vibrio vulnificus, agent dissolved in pH = 12 solution, read-out: MBC): 15.6 µg/mL (≈ 44.6 µM)
- MBC (V. vulnificus [1]; Vibrio vulnificus, pH 7, Control of the pH series (pH 7), read-out: MBC): 3.9 µg/mL (≈ 11.2 µM)
- MBC (V. vulnificus [3]): 3.9 µg/mL (≈ 11.2 µM)
- MBC (V. vulnificus [3]; Vibrio vulnificus, read-out: MBC): 3.91 µg/mL (≈ 11.2 µM)
- MBC (V. vulnificus [5]; Vibrio vulnificus, 1 h, agent incubated 60 minutes at 40°C, read-out: MBC): 3.9 µg/mL (≈ 11.2 µM)
- MBC (V. vulnificus [5]; Vibrio vulnificus, RT, read-out: MBC): 3.9 µg/mL (≈ 11.2 µM)
- MBC (V. vulnificus [5]; [7]): 3.9 µg/mL (≈ 11.2 µM)
- MBC (V. vulnificus [5]; [8]): 3.9 µg/mL (≈ 11.2 µM)
- MBC (V. vulnificus [5]; [9]): 3.9 µg/mL (≈ 11.2 µM)

- MIC (V. vulnificus [1]; [10]): 31.2 µg/mL (≈ 64.4 µM)
- MIC (V. vulnificus [1]; [11]): 31.2 µg/mL (≈ 64.4 µM)
- MIC (V. vulnificus [1]; [12]): 31.2 µg/mL (≈ 64.4 µM)
- MIC (V. vulnificus [1]; [13]): 31.2 µg/mL (≈ 64.4 µM)
- MIC (V. vulnificus [1]; [14]): 250 µg/mL (≈ 516 µM)
- change of the MIC of the antibiotic in combination with TP3 or TP4 (V. vulnificus [2]): halved
- MIC (V. vulnificus [4]): 31.2 µg/mL (≈ 64.4 µM)
- MIC (V. vulnificus [5]; RT): 31.2 µg/mL (≈ 64.4 µM)
- MIC (V. vulnificus [5]; [15]): 31.2 µg/mL (≈ 64.4 µM)
- MIC (V. vulnificus [5]; [7]): 31.2 µg/mL (≈ 64.4 µM)
- MIC (V. vulnificus [5]; [8]): 31.2 µg/mL (≈ 64.4 µM)
- MIC (V. vulnificus [5]; [9]): 62.5 µg/mL (≈ 129 µM)
SMILES: NC[C@H]1O[C@H](O[C@H]2[C@H](O)[C@@H](O[C@H]3O[C@H](CO)[C@@H](O)[C@H](N)[C@H]3O)[C@H](N)C[C@@H]2N)[C@H](O)[C@@H](O)[C@@H]1O [kanamycin, reference compound]
- MBC (V. vulnificus [1]; Control of the pH series (pH 7)): 31.2 µg/mL (≈ 64.4 µM)
- MBC (V. vulnificus [1]; [10]): 31.2 µg/mL (≈ 64.4 µM)
- MBC (V. vulnificus [1]; [11]): 31.2 µg/mL (≈ 64.4 µM)
- MBC (V. vulnificus [1]; [12]): 31.2 µg/mL (≈ 64.4 µM)
- MBC (V. vulnificus [1]; [13]): 31.2 µg/mL (≈ 64.4 µM)
- MBC (V. vulnificus [1]; [14]): 250 µg/mL (≈ 516 µM)
- concentration that increased NPN fluorescence (V. vulnificus [6]): 100 µg/mL
- MBC (V. vulnificus [3]): 31.2 µg/mL (≈ 64.4 µM)
- MBC (V. vulnificus [5]; RT): 31.2 µg/mL (≈ 64.4 µM)
- MBC (V. vulnificus [5]; [15]): 31.2 µg/mL (≈ 64.4 µM)
- MBC (V. vulnificus [5]; [7]): 31.2 µg/mL (≈ 64.4 µM)
- MBC (V. vulnificus [5]; [8]): 31.2 µg/mL (≈ 64.4 µM)
- MBC (V. vulnificus [5]; [9]): 62.5 µg/mL (≈ 129 µM)
